# Assay results from the NIST ThermoML archive (doi:10.1016/j.fluid.2014.11.020).
# ± gives the expanded uncertainty stated by the source.
# Assay: activity coefficient (dimensionless); of the first substance listed, at infinite dilution; xn = mol fraction of the nth substance listed
# Details: Liquid, Chromatography, x1 = 0
SMILES,activity coefficient (323.15 K),activity coefficient (333.15 K),activity coefficient (343.15 K)
"Cc1ccccc1C [1,2-dimethylbenzene] + CCCCCCCCn1cc[n+](COCCC)c1C.N#C[N-]C#N",1.33 ± 0.09,1.33 ± 0.09,1.33 ± 0.09
"Cc1ccccc1C [1,2-dimethylbenzene] + CCCCCCCCn1cc[n+](COCCC)c1C.O=S(=O)([N-]S(=O)(=O)C(F)(F)F)C(F)(F)F",0.94 ± 0.06,0.94 ± 0.06,0.94 ± 0.06
"Cc1ccccc1C [1,2-dimethylbenzene] + CCCCCCCCn1cc[n+](COCCCOC[n+]2ccn(CCCCCCCC)c2C)c1C.N#C[N-]C#N.N#C[N-]C#N",1.16 ± 0.07,1.18 ± 0.08,1.22 ± 0.08
"Cc1ccccc1C [1,2-dimethylbenzene] + CCCCCCCCn1cc[n+](COCCCOC[n+]2ccn(CCCCCCCC)c2C)c1C.O=S(=O)([N-]S(=O)(=O)C(F)(F)F)C(F)(F)F.O=S(=O)([N-]S(=O)(=O)C(F)(F)F)C(F)(F)F",0.68 ± 0.05,0.66 ± 0.05,0.66 ± 0.05
"Cc1ccccc1C [1,2-dimethylbenzene] + CCCOC[n+]1ccc(N(C)C)cc1.O=S(=O)([N-]S(=O)(=O)C(F)(F)F)C(F)(F)F",1.24 ± 0.08,1.31 ± 0.09,1.33 ± 0.09
"Cc1ccccc1C [1,2-dimethylbenzene] + CCCOC[n+]1ccn(C)c1.F[B-](F)(F)F",9.13 ± 0.62,8.97 ± 0.61,8.93 ± 0.61
"Cc1ccccc1C [1,2-dimethylbenzene] + CCCOC[n+]1ccn(C)c1.N#C[N-]C#N",5.05 ± 0.34,5.13 ± 0.35,5.22 ± 0.36
"Cc1ccccc1C [1,2-dimethylbenzene] + CCCOC[n+]1ccn(C)c1.O=S(=O)([N-]S(=O)(=O)C(F)(F)F)C(F)(F)F",2.3 ± 0.16,2.28 ± 0.16,2.29 ± 0.16
"Cc1ccccc1C [1,2-dimethylbenzene] + CCCOC[n+]1ccn(Cc2ccccc2)c1.F[B-](F)(F)F",4.3 ± 0.29,4.17 ± 0.28,4.22 ± 0.29
"Cc1ccccc1C [1,2-dimethylbenzene] + CCCOC[n+]1ccn(Cc2ccccc2)c1.N#C[N-]C#N",3.05 ± 0.21,3.03 ± 0.21,3.01 ± 0.2
"Cc1ccccc1C [1,2-dimethylbenzene] + CCCOC[n+]1ccn(Cc2ccccc2)c1.O=S(=O)([N-]S(=O)(=O)C(F)(F)F)C(F)(F)F",1.58 ± 0.1,1.23 ± 0.08,1.22 ± 0.08
"Cc1ccccc1C [1,2-dimethylbenzene] + CN(C)c1cc[n+](COCCCOC[n+]2ccc(N(C)C)cc2)cc1.O=S(=O)([N-]S(=O)(=O)C(F)(F)F)C(F)(F)F.O=S(=O)([N-]S(=O)(=O)C(F)(F)F)C(F)(F)F",1.18 ± 0.08,1.2 ± 0.08,1.22 ± 0.08
"Cc1ccccc1C [1,2-dimethylbenzene] + Cn1cc[n+](COCCCOC[n+]2ccn(C)c2)c1.N#C[N-]C#N.N#C[N-]C#N",8.42 ± 0.57,8.26 ± 0.56,8.25 ± 0.56
"Cc1ccccc1C [1,2-dimethylbenzene] + Cn1cc[n+](COCCCOC[n+]2ccn(C)c2)c1.O=S(=O)([N-]S(=O)(=O)C(F)(F)F)C(F)(F)F.O=S(=O)([N-]S(=O)(=O)C(F)(F)F)C(F)(F)F",2.08 ± 0.14,2.1 ± 0.14,2.04 ± 0.14
"Cc1ccccc1C [1,2-dimethylbenzene] + N#C[N-]C#N.N#C[N-]C#N.c1ccc(Cn2cc[n+](COCCCOC[n+]3ccn(Cc4ccccc4)c3)c2)cc1",7.13 ± 0.49,6.87 ± 0.47,6.71 ± 0.46
"Cc1cccc(C)c1 [1,3-dimethylbenzene] + CCCCCCCCn1cc[n+](COCCC)c1C.N#C[N-]C#N",1.54 ± 0.1,1.54 ± 0.1,1.57 ± 0.1
"Cc1cccc(C)c1 [1,3-dimethylbenzene] + CCCCCCCCn1cc[n+](COCCC)c1C.O=S(=O)([N-]S(=O)(=O)C(F)(F)F)C(F)(F)F",1.02 ± 0.06,1 ± 0.06,1.01 ± 0.06
"Cc1cccc(C)c1 [1,3-dimethylbenzene] + CCCCCCCCn1cc[n+](COCCCOC[n+]2ccn(CCCCCCCC)c2C)c1C.N#C[N-]C#N.N#C[N-]C#N",1.36 ± 0.09,1.37 ± 0.09,1.39 ± 0.09
"Cc1cccc(C)c1 [1,3-dimethylbenzene] + CCCCCCCCn1cc[n+](COCCCOC[n+]2ccn(CCCCCCCC)c2C)c1C.O=S(=O)([N-]S(=O)(=O)C(F)(F)F)C(F)(F)F.O=S(=O)([N-]S(=O)(=O)C(F)(F)F)C(F)(F)F",0.75 ± 0.05,0.72 ± 0.05,0.74 ± 0.05
"Cc1cccc(C)c1 [1,3-dimethylbenzene] + CCCOC[n+]1ccc(N(C)C)cc1.O=S(=O)([N-]S(=O)(=O)C(F)(F)F)C(F)(F)F",1.4 ± 0.09,1.47 ± 0.1,1.48 ± 0.1
"Cc1cccc(C)c1 [1,3-dimethylbenzene] + CCCOC[n+]1ccn(C)c1.F[B-](F)(F)F",11 ± 0.75,10.8 ± 0.74,10.7 ± 0.73

SMILES,activity coefficient (323.15 K),activity coefficient (333.15 K),activity coefficient (343.15 K)
"Cc1cccc(C)c1 [1,3-dimethylbenzene] + CCCOC[n+]1ccn(C)c1.N#C[N-]C#N",6.24 ± 0.43,6.24 ± 0.43,6.41 ± 0.44
"Cc1cccc(C)c1 [1,3-dimethylbenzene] + CCCOC[n+]1ccn(C)c1.O=S(=O)([N-]S(=O)(=O)C(F)(F)F)C(F)(F)F",2.59 ± 0.18,2.54 ± 0.17,2.54 ± 0.17
"Cc1cccc(C)c1 [1,3-dimethylbenzene] + CCCOC[n+]1ccn(Cc2ccccc2)c1.F[B-](F)(F)F",5.41 ± 0.37,4.91 ± 0.33,4.91 ± 0.33
"Cc1cccc(C)c1 [1,3-dimethylbenzene] + CCCOC[n+]1ccn(Cc2ccccc2)c1.N#C[N-]C#N",3.62 ± 0.25,3.52 ± 0.24,3.42 ± 0.23
"Cc1cccc(C)c1 [1,3-dimethylbenzene] + CCCOC[n+]1ccn(Cc2ccccc2)c1.O=S(=O)([N-]S(=O)(=O)C(F)(F)F)C(F)(F)F",1.55 ± 0.1,1.37 ± 0.09,1.35 ± 0.09
"Cc1cccc(C)c1 [1,3-dimethylbenzene] + CN(C)c1cc[n+](COCCCOC[n+]2ccc(N(C)C)cc2)cc1.O=S(=O)([N-]S(=O)(=O)C(F)(F)F)C(F)(F)F.O=S(=O)([N-]S(=O)(=O)C(F)(F)F)C(F)(F)F",1.36 ± 0.09,1.38 ± 0.09,1.4 ± 0.09
"Cc1cccc(C)c1 [1,3-dimethylbenzene] + Cn1cc[n+](COCCCOC[n+]2ccn(C)c2)c1.N#C[N-]C#N.N#C[N-]C#N",10.9 ± 0.75,10.7 ± 0.73,10.5 ± 0.72
"Cc1cccc(C)c1 [1,3-dimethylbenzene] + Cn1cc[n+](COCCCOC[n+]2ccn(C)c2)c1.O=S(=O)([N-]S(=O)(=O)C(F)(F)F)C(F)(F)F.O=S(=O)([N-]S(=O)(=O)C(F)(F)F)C(F)(F)F",2.39 ± 0.16,2.41 ± 0.16,2.38 ± 0.16
"Cc1cccc(C)c1 [1,3-dimethylbenzene] + N#C[N-]C#N.N#C[N-]C#N.c1ccc(Cn2cc[n+](COCCCOC[n+]3ccn(Cc4ccccc4)c3)c2)cc1",8.85 ± 0.6,8.51 ± 0.58,8.32 ± 0.57
"Cc1ccc(C)cc1 [1,4-dimethylbenzene] + CCCCCCCCn1cc[n+](COCCC)c1C.N#C[N-]C#N",1.51 ± 0.1,1.52 ± 0.1,1.56 ± 0.1
"Cc1ccc(C)cc1 [1,4-dimethylbenzene] + CCCCCCCCn1cc[n+](COCCC)c1C.O=S(=O)([N-]S(=O)(=O)C(F)(F)F)C(F)(F)F",1.02 ± 0.06,1.01 ± 0.06,1 ± 0.06
"Cc1ccc(C)cc1 [1,4-dimethylbenzene] + CCCCCCCCn1cc[n+](COCCCOC[n+]2ccn(CCCCCCCC)c2C)c1C.N#C[N-]C#N.N#C[N-]C#N",1.34 ± 0.09,1.35 ± 0.09,1.36 ± 0.09
"Cc1ccc(C)cc1 [1,4-dimethylbenzene] + CCCCCCCCn1cc[n+](COCCCOC[n+]2ccn(CCCCCCCC)c2C)c1C.O=S(=O)([N-]S(=O)(=O)C(F)(F)F)C(F)(F)F.O=S(=O)([N-]S(=O)(=O)C(F)(F)F)C(F)(F)F",0.75 ± 0.05,0.73 ± 0.05,0.73 ± 0.05
"Cc1ccc(C)cc1 [1,4-dimethylbenzene] + CCCOC[n+]1ccc(N(C)C)cc1.O=S(=O)([N-]S(=O)(=O)C(F)(F)F)C(F)(F)F",1.38 ± 0.09,1.45 ± 0.1,1.45 ± 0.1
"Cc1ccc(C)cc1 [1,4-dimethylbenzene] + CCCOC[n+]1ccn(C)c1.F[B-](F)(F)F",10.7 ± 0.73,10.3 ± 0.7,10.2 ± 0.7
"Cc1ccc(C)cc1 [1,4-dimethylbenzene] + CCCOC[n+]1ccn(C)c1.N#C[N-]C#N",5.98 ± 0.41,6.03 ± 0.41,6.05 ± 0.41
"Cc1ccc(C)cc1 [1,4-dimethylbenzene] + CCCOC[n+]1ccn(C)c1.O=S(=O)([N-]S(=O)(=O)C(F)(F)F)C(F)(F)F",2.58 ± 0.18,2.53 ± 0.17,2.52 ± 0.17
"Cc1ccc(C)cc1 [1,4-dimethylbenzene] + CCCOC[n+]1ccn(Cc2ccccc2)c1.F[B-](F)(F)F",5.12 ± 0.35,4.85 ± 0.33,4.88 ± 0.33
"Cc1ccc(C)cc1 [1,4-dimethylbenzene] + CCCOC[n+]1ccn(Cc2ccccc2)c1.N#C[N-]C#N",3.66 ± 0.25,3.56 ± 0.24,3.46 ± 0.24
"Cc1ccc(C)cc1 [1,4-dimethylbenzene] + CCCOC[n+]1ccn(Cc2ccccc2)c1.O=S(=O)([N-]S(=O)(=O)C(F)(F)F)C(F)(F)F",1.56 ± 0.1,1.37 ± 0.09,1.34 ± 0.09
